Assay results as given in PMC9382805, “Design, synthesis, anticancer evaluation and docking studies of novel 2-(1-isonicotinoyl-3-phenyl-1H-pyrazol-4-yl)-3-phenylthiazolidin-4-one derivatives as Aurora-A kinase inhibitors” (BMC Chemistry, 2022).
Like-named read-outs stand apart in the source and are kept apart here.

Assays:
[1] = molecular target: recombinant human Aurora-A (Homo sapiens, UniProt O14965); assay: biochemical; details: NADH consumption at 340 nm, 30 °C; read-out: IC50 ± SD, inhibition of Aurora-A kinase
Description: At 30 °C, dilute enzyme (aurora A), substrates (NADH, NaCl, MgCl2, PEP, LDH, PK, and histones H3), ATP, and inhibitors (selected compounds as per in silico studies) in kinase buffer (HEPES) and this to 96 well plates and incubate for 60 min. Once the ATP substrate was added, the reaction began. With the reaction, NADH was continuously transformed into NAD^+ The activity of Aurora-A can be assayed by measuring the consumption of nicotinamide adenine dinucleotide plus hydrogen (NADH) at 340 nm. Absorbance at 340 nm was continuously recorded for 10 min. Inhibition of recombinant human Aurora-A by inhibitors was initially screened via an enzyme-coupled continuous spectrophotometric assay (Kishore et al., 2008; Aixia et al., 2011; Fancelli D et al., 2006).

[2] = tested on: MCF-7 cell line (breast cancer); assay: MTT cytotoxicity assay, MCF-7; assay type: cell-based, human
Description: (§1) MTT assay was engaged to evaluate the anticancer activity of synthesized compounds P(1–21) against various human cancer cell lines (breast cancer- MCF-7 and colorectal carcinoma- HCT116) [31–34].
(§2) The MTT test was carried out using the 3-(4,5-dimethyl-2-thiazolyl)-2,5-diphenyl-2H-tetrazolium (MTT) colorimetric test [33, 34]. […] The MTT test based on the reduction of MTT (yellow color) depends on cellular metabolic activities due to H-dependent cellular NAD (P) oxidoreductase enzymes [33]. […] The final product of MTT reduction is a purple formazan that can be easily dissolved in DMSO.
(§3) To test the anticancer activities of the synthesized compounds (selected based on docking studies), we evaluated the antiproliferative activity of compounds P (1–21) against HCT116 and MCF-7 cell lines. All the experiments were repeated at least thrice independently, the 50% inhibitory concentration (IC50) of new hybrids was determined (as the anticancer drug concentration causing a 50% reduction in cell viability) and calculated using a trendline equation.

[3] = tested on: HCT116 cell line (colorectal carcinoma); assay: MTT cytotoxicity assay, HCT116; assay type: cell-based, human
Description: as §1, §2, §3

[4] = tested on: HCT 116 and MCF-7 cell lines; assay: cells; details: Homo sapiens, read-out: IC50, cytotoxicity, range over two cancer cell lines
Description: as §1, §2, §3

[5] = Homo sapiens, MCF7, read-out: IC50 ± SD, MCF-7, inhibition of growth of tumor cell lines
[6] = Homo sapiens, HCT-116, read-out: IC50 ± SD, HCT-116, inhibition of growth of tumor cell lines

recombinant human Aurora-A, sequence (O14965 whole entry): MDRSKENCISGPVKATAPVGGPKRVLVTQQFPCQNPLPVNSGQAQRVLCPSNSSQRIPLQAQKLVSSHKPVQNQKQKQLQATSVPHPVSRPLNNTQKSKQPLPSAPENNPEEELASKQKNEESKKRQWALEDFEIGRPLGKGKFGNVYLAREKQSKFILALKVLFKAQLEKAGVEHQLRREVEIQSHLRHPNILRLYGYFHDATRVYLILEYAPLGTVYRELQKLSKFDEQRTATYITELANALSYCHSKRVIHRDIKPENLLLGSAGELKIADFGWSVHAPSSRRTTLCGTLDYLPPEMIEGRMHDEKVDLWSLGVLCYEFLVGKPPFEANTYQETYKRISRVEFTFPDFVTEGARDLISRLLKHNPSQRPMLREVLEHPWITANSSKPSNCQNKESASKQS

Structure (SMILES)	IC50 [1]	IC50 [2, 5]	IC50 [3, 6]	melting point	IC50 [4]	IC50 ([2]; Homo sapiens, MCF7, MTT assay, MCF-7, read-out: IC50 ± SD, MCF-7, inhibition of growth of tumor cell lines)	IC50 ([2]; MTT assay, MCF-7, listed as VX-680 (Tozasertib), read-out: IC50 ± SD, MCF-7, inhibition of growth of tumor cell lines)	IC50 ([3]; Homo sapiens, HCT-116, MTT assay, HCT116, read-out: IC50 ± SD, HCT-116, inhibition of growth of tumor cell lines)	IC50 ([3]; MTT assay, HCT116, listed as VX-680 (Tozasertib), read-out: IC50 ± SD, HCT-116, inhibition of growth of tumor cell lines)
O=C1CSC(c2cn(C(=O)c3ccncc3)nc2-c2ccc([N+](=O)[O-])cc2)N1c1ccccc1 (stereo not drawn) [Compound P-1, 2-(1-isonicotinoyl-3-(4-nitrophenyl)-1H-pyrazol-4-yl)-3-phenylthiazolidin-4-one]	2.34 ± 0.36 µM	4.4 ± 0.18 µM	2.3 ± 0.14 µM						
O=C1CSC(c2cn(C(=O)c3ccncc3)nc2-c2ccc([N+](=O)[O-])cc2)N1c1ccc([N+](=O)[O-])cc1 (stereo not drawn) [Compound P-2, 2-(1-isonicotinoyl-3-(4-nitrophenyl)-1H-pyrazol-4-yl)-3-(4-nitrophenyl)thiazolidin-4-one]	3.57 ± 0.35 µM	3.26 ± 0.31 µM	3.52 ± 0.33 µM						
O=C1CSC(c2cn(C(=O)c3ccncc3)nc2-c2ccc([N+](=O)[O-])cc2)N1c1ccccc1[N+](=O)[O-] (stereo not drawn) [Compound P-3, 2-(1-isonicotinoyl-3-(4-nitrophenyl)-1H-pyrazol-4-yl)-3-(2-nitrophenyl)thiazolidin-4-one]	7.25 ± 0.8 µM	4.49 ± 0.42 µM	4.47 ± 0.45 µM	282 to 284 °C					
O=C1CSC(c2cn(C(=O)c3ccncc3)nc2-c2ccc([N+](=O)[O-])cc2)N1c1ccc(Cl)cc1 (stereo not drawn) [Compound P-4, 3-(4-chlorophenyl)-2-(1-isonicotinoyl-3-(4-nitrophenyl)-1H-pyrazol-4-yl)thiazolidin-4-one]	1.33 ± 0.15 µM	2.55 ± 0.07 µM	1.35 ± 0.07 µM	286 to 288 °C					
O=C1CSC(c2cn(C(=O)c3ccncc3)nc2-c2ccc([N+](=O)[O-])cc2)N1c1cccc(Cl)c1 (stereo not drawn) [Compound P-5, 3-(3-chlorophenyl)-2-(1-isonicotinoyl-3-(4-nitrophenyl)-1H-pyrazol-4-yl)thiazolidin-4-one]	4.79 ± 0.83 µM	4.01 ± 0.1 µM	3.88 ± 0.16 µM	274 to 276 °C					
COc1ccc(N2C(=O)CSC2c2cn(C(=O)c3ccncc3)nc2-c2ccc([N+](=O)[O-])cc2)cc1 (stereo not drawn) [Compound P-6, 2-(1-isonicotinoyl-3-(4-nitrophenyl)-1H-pyrazol-4-yl)-3-(4-methoxyphenyl)thiazolidin-4-one]	0.18 ± 0.05 µM	0.44 ± 0.06 µM	0.37 ± 0.15 µM		0.37 to 0.44 µM				
COc1ccccc1N1C(=O)CSC1c1cn(C(=O)c2ccncc2)nc1-c1ccc([N+](=O)[O-])cc1 (stereo not drawn) [Compound P-7, 2-(1-isonicotinoyl-3-(4-nitrophenyl)-1H-pyrazol-4-yl)-3-(2-methoxyphenyl)thiazolidin-4-one]	0.42 ± 0.12 µM	0.88 ± 0.03 µM	0.62 ± 0.03 µM	250 to 252 °C					
COc1ccc(-c2nn(C(=O)c3ccncc3)cc2C2SCC(=O)N2c2ccccc2)cc1 (stereo not drawn) [Compound P-8, 2-(1-isonicotinoyl-3-(4-methoxyphenyl)-1H-pyrazol-4-yl)-3-phenylthiazolidin-4-one]	7.32 ± 0.69 µM	6.08 ± 0.24 µM	5.35 ± 0.27 µM	300 to 302 °C					
COc1ccc(-c2nn(C(=O)c3ccncc3)cc2C2SCC(=O)N2c2ccc([N+](=O)[O-])cc2)cc1 (stereo not drawn) [Compound P-9, 2-(1-isonicotinoyl-3-(4-methoxyphenyl)-1H-pyrazol-4-yl)-3-(4-nitrophenyl)thiazolidin-4-one]	1.45 ± 0.05 µM	1.62 ± 0.05 µM	1.45 ± 0.18 µM	308 to 310 °C					
COc1ccc(-c2nn(C(=O)c3ccncc3)cc2C2SCC(=O)N2c2ccccc2[N+](=O)[O-])cc1 (stereo not drawn) [Compound P-10, 2-(1-isonicotinoyl-3-(4-methoxyphenyl)-1H-pyrazol-4-yl)-3-(2-nitrophenyl)thiazolidin-4-one]	0.65 ± 0.09 µM	1.03 ± 0.11 µM	0.78 ± 0.04 µM	322 to 324 °C					
COc1ccc(-c2nn(C(=O)c3ccncc3)cc2C2SCC(=O)N2c2ccc(Cl)cc2)cc1 (stereo not drawn) [Compound P-11, 3-(4-chlorophenyl)-2-(1-isonicotinoyl-3-(4-methoxyphenyl)-1H-pyrazol-4-yl)thiazolidin-4-one]	2.78 ± 0.14 µM	2.53 ± 0.19 µM	2.54 ± 0.2 µM	318 to 320 °C					
COc1ccc(-c2nn(C(=O)c3ccncc3)cc2C2SCC(=O)N2c2cccc(Cl)c2)cc1 (stereo not drawn) [Compound P-12, 3-(3-chlorophenyl)-2-(1-isonicotinoyl-3-(4-methoxyphenyl)-1H-pyrazol-4-yl)thiazolidin-4-one]	5.59 ± 0.37 µM	4.35 ± 0.47 µM	4.06 ± 0.38 µM	338 to 340 °C					
COc1ccc(-c2nn(C(=O)c3ccncc3)cc2C2SCC(=O)N2c2ccc(OC)cc2)cc1 (stereo not drawn) [Compound P-13, 2-(1-isonicotinoyl-3-(4-methoxyphenyl)-1H-pyrazol-4-yl)-3-(4-methoxyphenyl) thiazolidin-4-one]	12.4 ± 0.85 µM	8.21 ± 0.35 µM	5.87 ± 0.42 µM						
COc1ccc(-c2nn(C(=O)c3ccncc3)cc2C2SCC(=O)N2c2ccccc2OC)cc1 (stereo not drawn) [Compound P-14]				336 to 338 °C					
O=C1CSC(c2cn(C(=O)c3ccncc3)nc2-c2ccc(Br)cc2)N1c1ccccc1 (stereo not drawn) [Compound P-15, 2-(3-(4-bromophenyl)-1-isonicotinoyl-1H-pyrazol-4-yl)-3-phenylthiazolidin-4-one]	2.1 ± 0.13 µM	2.34 ± 0.27 µM	2.18 ± 0.15 µM	256 to 258 °C					
O=C1CSC(c2cn(C(=O)c3ccncc3)nc2-c2ccc(Br)cc2)N1c1ccc([N+](=O)[O-])cc1 (stereo not drawn) [Compound P-16, 2-(3-(4-bromophenyl)-1-isonicotinoyl-1H-pyrazol-4-yl)-3-(4-nitrophenyl)thiazolidin-4-one]	2.1 ± 0.15 µM	2.25 ± 0.25 µM	2.01 ± 0.11 µM	268 to 270 °C					
O=C1CSC(c2cn(C(=O)c3ccncc3)nc2-c2ccc(Br)cc2)N1c1ccc(Cl)cc1 (stereo not drawn) [Compound P-18, 2-(3-(4-bromophenyl)-1-isonicotinoyl-1H-pyrazol-4-yl)-3-(4-chlorophenyl)thiazolidin-4-one]	1.62 ± 0.11 µM	1.77 ± 0.15 µM	1.52 ± 0.09 µM	244 to 246 °C					
O=C1CSC(c2cn(C(=O)c3ccncc3)nc2-c2ccc(Br)cc2)N1c1cccc(Cl)c1 (stereo not drawn) [Compound P-19]	0.79 ± 0.07 µM	1.21 ± 0.05 µM	1.02 ± 0.12 µM	248 to 250 °C					
COc1ccc(N2C(=O)CSC2c2cn(C(=O)c3ccncc3)nc2-c2ccc(Br)cc2)cc1 (stereo not drawn) [Compound P-20, 2-(3-(4-bromophenyl)-1-isonicotinoyl-1H-pyrazol-4-yl)-3-(4-methoxyphenyl) thiazolidin-4-one]	0.22 ± 0.08 µM	0.56 ± 0.06 µM	0.42 ± 0.08 µM		0.39 to 0.56 µM				
COc1ccccc1N1C(=O)CSC1c1cn(C(=O)c2ccncc2)nc1-c1ccc(Br)cc1 (stereo not drawn) [Compound P-21]				260 to 262 °C					
Cc1cc(Nc2cc(N3CCN(C)CC3)nc(Sc3ccc(NC(=O)C4CC4)cc3)n2)[nH]n1 [VX-680, Tozasertib, reference compound]						0.4 ± 0.03 µM	0.38 ± 0.02 µM	0.32 ± 0.05 µM	0.3 ± 0.03 µM
